Reference: ChEMBL document CHEMBL4406828, “Conformational restriction design of thiophene-biphenyl-DAPY HIV-1 non-nucleoside reverse transcriptase inhibitors” (Eur J Med Chem, 2019)

Tests used:
[1] = biological target: Human immunodeficiency virus type 1 reverse transcriptase (Human immunodeficiency virus 1, UniProt Q72547); assay: Inhibition of recombinant HIV-1 reverse transcriptase p66/p51 incubated for 40 mins by picogreen dye based spectrofluorometric assay
[2] = Cytotoxicity against human MT4 cells assessed as reduction in cell viability incubated for 4 days by MTT assay; type: cell-based
[3] = system: Human immunodeficiency virus 1; assay: Antiviral activity against HIV-1 harboring reverse transcriptase Y181C mutant infected in human MT4 cells assessed as reduction in virus-induced cytopathic effect incubated for 4 days by MTT assay; type: functional, organism-based; conditions: Human immunodeficiency virus 1, MT4, 96 h
[4] = system: Human immunodeficiency virus 1; assay: Antiviral activity against HIV-1 harboring reverse transcriptase L100I mutant infected in human MT4 cells assessed as reduction in virus-induced cytopathic effect incubated for 4 days by MTT assay; type: functional, organism-based; conditions: Human immunodeficiency virus 1, MT4, 96 h
[5] = system: Human immunodeficiency virus 1; assay: Antiviral activity against HIV-1 harboring reverse transcriptase K103N mutant infected in human MT4 cells assessed as reduction in virus-induced cytopathic effect incubated for 4 days by MTT assay; type: functional, organism-based; conditions: Human immunodeficiency virus 1, MT4, 96 h
[6] = system: Human immunodeficiency virus 1; assay: Antiviral activity against HIV-1 harboring reverse transcriptase E138K mutant infected in human MT4 cells assessed as reduction in virus-induced cytopathic effect incubated for 4 days by MTT assay; type: functional, organism-based; conditions: Human immunodeficiency virus 1, MT4, 96 h

| IC50 [1] | SMILES | CC50 at 96 h [2] | other results |
| --- | --- | --- | --- |
| 42 nM | Cc1cc(-c2ccc(Oc3nc(Nc4ccc(C#N)cc4)nc4ccsc34)cc2C)ccc1C#N |  |  |
| 65 nM | N#Cc1ccc(Nc2nc(Oc3ccc(-c4ccc(C#N)cc4F)cc3)c3sccc3n2)cc1 |  |  |
|  | O=C1Nc2ccc(Cl)cc2[C@@](C#CC2CC2)(C(F)(F)F)O1 [EFAVIRENZ] | > 6340 nM |  |
|  | Cc1cc(C#N)cc(C)c1Oc1nc(Nc2ccc(C#N)cc2)nc(N)c1Br [ETRAVIRINE] | > 4610 nM |  |
| 31 nM | N#Cc1ccc(Nc2nc(Oc3ccc(-c4ccc(C#N)c(Cl)c4)cc3Cl)c3sccc3n2)cc1 |  |  |
| 27 nM | Cc1cc(C#N)ccc1-c1ccc(Oc2nc(Nc3ccc(C#N)cc3)nc3ccsc23)cc1C |  |  |
| 62 nM | Cc1cc(-c2ccc(C#N)cc2F)ccc1Oc1nc(Nc2ccc(C#N)cc2)nc2ccsc12 |  |  |
|  | Cc1ccnc2c1NC(=O)c1cccnc1N2C1CC1 [NEVIRAPINE] | > 15000 nM | EC50 [3]: > 15000 nM; EC50 [4]: 1990 nM; EC50 [5]: > 9550 nM; EC50 [6]: 200 nM |
